{"source": "patent US20210246439A1", "about": "“ENGINEERED BI-STABLE TOGGLE SWITCH AND USES THEREOF” (Massachusetts Institute of Technology, priority 2020, published 2021)", "key": {"[1]": {"test_system": "engineered bi-stable toggle switch (CasE-PEST, Csy4-PEST, DDd-CasE, DDe-DDe-Csy4) in HEK293 cells", "assay": "Toggle switch with DDd-CasE and DDe-DDe-Csy4 in transfected HEK293 cells, small-molecule control, flow cytometry of mKO2/eYFP", "assay_type": "cell-based, human", "method": "Output fluorescent protein genes may also contain PERSIST activation domains to decrease expression in the OFF state. […] Further, HEK293 cells were transfected with CasE-PEST, Csy4-PEST, DDd-CasE and DDe-DDe-Csy4 transiently and cultured in the absence of small molecule for 24 hours."}, "[2]": {"test_system": "CasE target hairpin containing a theophylline responsive aptamer", "assay": "Proof of concept: CasE target hairpin with theophylline responsive aptamer 5' of eYFP, co-delivered with CasE", "assay_type": "cell-based, human", "conditions": "HEK293 cells, versus absence of theophylline", "from_the_text": "Alternatively, the engineered bi-stable toggle switch described in Example 1 can be designed to be able to respond to different small molecules to switch the system between different states. In this system, each of the endoRNAse target sites can include a small molecule-response aptamers. Binding of the small molecule to the aptamer stabilizes a secondary structure in the aptamer RNA that blocks the endoRNAse from cleaving its recognition hairpin. As illustrated by FIG. 4A, the CRISPR-endoRNAse recognition hairpin contains an aptamer sequence capable of binding to a small molecule. In the absence of the small molecule, the endoRNAse is able to cleave the recognition hairpin; however, the addition of the small molecule to the system induces a conformational change of the endoRNAse target hairpin, and such conformational change renders the endoRNAse incapable of binding and cleaving its target hairpin. […] In this experiment, a CasE target hairpin containing a theophylline responsive aptamer was placed 5′ of an eYFP coding sequence in an eYFP-expressing construct. This eYFP-expressing construct was co-delivered to HEK293 cells with another construct expressing CasE."}, "[3]": {"test_system": "engineered bi-stable motif", "assay": "Screening of promoter and degradation domain combinations with Csy4 on the bi-stable motif (polytransfection, eYFP/TagBFP)", "assay_type": "cell-based", "method": "Csy4 was first selected to be fused with either one copy or two copies of DDd domain or DDe domain respectively: DDe-Csy4, DDe-DDe-Csy4, DDd-Csy4, and DDd-DDd-Csy4. Various promoters (e.g., phEF1α, pUbc, and pPh1f) were used to drive the expression of the Csy4 or Csy4-degradation domain fusion proteins. pPh1f promoters were tested in the presence of Gal4-NLS-VP64. As a result, the following constructs were generated: phEF1α-Csy4, pUbc-DDd-Csy4, pUbc-DDd-DDd-Csy4, pPh1f-DDd-DDd-Csy4, pPh1f-DDd-Csy4-PEST, pPh1f-DDe-Csy4, pUbc-DDe-Csy4, pUbc-DDe-Csy4-PEST, pPh1f-DDe-DDe-Csy4, pUbc-DDe-DDe-Csy4, and pUbc-DDe-DDe-Csy4-PEST. Each of the constructs and the engineered bi-stable toggle switch described in Example 1 were delivered to the cells by polytransfection (Gam et al, A ‘poly-transfection’ method for rapid, one-pot characterization and optimization of genetic systems, Nucleic Acids Research, Volume 47, Issue 18, 10 Oct. 2019, Page e106). The output molecules were eYFP and TagBFP. The system was designed such that Csy4 represses eYFP and CasE represses TagBFP. A cell in the CasE-high state expressed eYFP and a cell in the Csy4-high state expresses TagBFP. The ratio between CasE to Csy4 was set at 6.7 times as much CasE as Csy4, biasing the system towards a CasE-high state in the absence of additional proteins. […]"}, "[4]": {"test_system": "engineered bi-stable motif", "assay": "Screening of DDd-CasE fusion proteins on the bi-stable motif (polytransfection, eYFP/TagBFP)", "assay_type": "cell-based", "conditions": "hEF1α promoter, among CasE-DDd fusions screened", "method": "Further, fusion proteins between CasE and one or more DDd domains were screened similarly as described above. In this experiment, only hEF1α promoter was tested. Each of the construct and the engineered bi-stable toggle switch described in Example 1 were delivered to the cells by polytransfection. The output molecules were eYFP and TagBFP. The system was designed such that Csy4 represses eYFP and CasE represses TagBFP. A cell in the CasE-high state expressed eYFP and a cell in the Csy4-high state expresses TagBFP. The ratio between CasE to Csy4 was set at 1.6 times as much Csy4 as CasE, biasing the system towards a Csy4-high state in the absence of additional proteins."}}}
{"molecule": "4-hydroxytamoxifen [4-OHT]", "values": [{"measurement": "state the bi-stable toggle switch stabilizes on", "setting": "[1]; small molecule in the system for 24 hours", "value": "Csy4-high/CasE-low state (mKO2-high/eYFP-low)"}]}
{"molecule": "Cn1c(=O)c2[nH]cnc2n(C)c1=O", "note": "[theophylline]", "values": [{"measurement": "eYFP expression in the presence of theophylline (repression by CasE lifted)", "setting": "[2]", "value": "two-folds increase"}]}
{"molecule": "COc1cc(Cc2cnc(N)nc2N)cc(OC)c1OC", "note": "[TMP, trimethoprim]", "values": [{"measurement": "reporter expression after small molecule addition", "setting": "[1]; 10 μM added at 24 hrs and maintained for 48 hrs, roughly equal mKO2 and eYFP before addition", "value": "higher frequencies of eYFP expression than mKO2 expression"}]}
{"molecule": "DDe-DDe-Csy4: fusion protein of two DDe domains and Csy4, nucleotide sequence SEQ ID NO: 5 (protein) MSLALSLTADQMVSALLDAEPPILYSEYDPTRPFSEASMMGLLTNLADRELVHMINWAKRVPGFVDLALHDQVHLLECAWMEILMIGLVWRSMEHPGKLLFAPNLLLDRNQGKCVEGGVEIFDMLLATSSRFRMMNLQGEEFVCLKSIILLNSGVYTFLSSTLKSLEEKDHIHRVLDKITDTLIHLMAKAGLTLQQQHQRLAQLLLILSHIRHMSSKRMEHLYSMKCKNVVPLSDLLLEMLDAHRLMSLALSLTADQMVSALLDAEPPILYSEYDPTRPFSEASMMGLLTNLADRELVHMINWAKRVPGFVDLALHDQVHLLECAWMEILMIGLVWRSMEHPGKLLFAPNLLLDRNQGKCVEGGVEIFDMLLATSSRFRMMNLQGEEFVCLKSIILLNSGVYTFLSSTLKSLEEKDHIHRVLDKITDTLIHLMAKAGLTLQQQHQRLAQLLLILSHIRHMSSKRMEHLYSMKCKNVVPLSDLLLEMLDAHRLMDHYLDIRLRPDPEFPPAQLMSVLFGKLHQALVAQGGDRIGVSFPDLDESRSRLGERLRIHASADDLRALLARPWLEGLRDHLQFGEPAVVPHPTPYRQVSRVQAKSNPERLRRRLMRRHDLSEEEARKRIPDTVARALDLPFVTLRSQSTGQHFRLFIRHGPLQVTAEEGGFTCYGLSKGGFVPWF", "values": [{"measurement": "capability of (i) being degraded in the absence of 4-OHT and (ii) cleaving RNA efficiently in the presence of 4-OHT", "setting": "[3]; among Csy4 fusion constructs screened", "value": "best capability"}, {"measurement": "fraction of cells in the TagBFP high state with versus without 4-OHT", "setting": "[3]; regardless of promoter, especially in higher ratio bins", "value": "higher fraction of cells in the TagBFP high state when 4-OHT is present than without"}]}
{"molecule": "DDd-CasE: fusion protein of DDd domain and CasE, nucleotide sequence SEQ ID NO: 6 (protein) MYLSKIIIARAWSRDLYQLHQELWHLFPNRPDAARDFLFHVEKRNTPEGCHVLLQSAQMPVSTAVATVIKTKQVEFQLQVGVPLYFRLRANPIKTILDNQKRLDSKGNIKRCRVPLIKEAEQIAWLQRKLGNAARVEDVHPISERPQYFSGEGKNGKIQTVCFEGVLTINDAPALIDLLQQGIGPAKSMGCGLLSLAPLMISLIAALAVDYVIGMENAMPWNLPADLAWFKRNTLNKPVIMGRHTWESIGRPLPGRKNIILSSQPSTDDRVTWVKSVDEAIAACGDVPEIMVIGGGRVIEQFLPKAQKLYLTHIDAEVEGDTHFPDYEPDDWESVFSEFHDADAQNSHSYCFEILERR", "values": [{"measurement": "being degraded in the absence of TMP and cleaving RNA in the presence of TMP", "setting": "[4]", "value": "better at (i) being degraded in the absence of TMP; and (ii) cleaving RNA efficiently in the presence of TMP"}]}
